Publication PMC3639963, “A New Class of Small Molecule Inhibitor of BMP Signaling” (PLoS ONE, 2013)

Tests used:
Assay in all cases: Nanosyn kinase profiling
Type in all cases: biochemical
Details in all cases: read-out: Percentage inhibition; for inhibition at 0.1 µM: 0.1 µM inhibitor; for inhibition at 1 µM: 1 µM inhibitor
BTK = target: T1, BTK (Homo sapiens, UniProt Q06187)
T1 construct: purchased Nanosyn (enzymatic panel); SGC in-house recombinant human kinases (DSF panel); Invitrogen (ALK1-6)
T1 sequence (Q06187 whole entry): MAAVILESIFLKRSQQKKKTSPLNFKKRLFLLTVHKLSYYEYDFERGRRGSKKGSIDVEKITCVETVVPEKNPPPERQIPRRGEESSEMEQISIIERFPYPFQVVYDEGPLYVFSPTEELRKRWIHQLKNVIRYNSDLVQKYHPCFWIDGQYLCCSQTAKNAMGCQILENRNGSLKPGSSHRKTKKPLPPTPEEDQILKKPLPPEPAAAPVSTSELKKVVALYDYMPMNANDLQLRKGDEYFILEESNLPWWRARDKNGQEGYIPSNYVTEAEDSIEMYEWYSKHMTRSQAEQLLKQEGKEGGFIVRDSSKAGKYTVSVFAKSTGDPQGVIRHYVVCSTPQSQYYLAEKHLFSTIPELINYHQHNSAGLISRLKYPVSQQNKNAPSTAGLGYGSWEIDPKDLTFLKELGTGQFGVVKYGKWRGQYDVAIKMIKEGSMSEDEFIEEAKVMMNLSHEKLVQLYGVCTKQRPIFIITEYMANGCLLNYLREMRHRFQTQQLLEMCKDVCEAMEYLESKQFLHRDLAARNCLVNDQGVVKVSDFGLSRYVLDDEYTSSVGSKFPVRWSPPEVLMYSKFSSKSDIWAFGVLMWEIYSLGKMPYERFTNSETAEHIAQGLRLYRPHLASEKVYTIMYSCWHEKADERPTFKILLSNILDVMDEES
In short: (§1)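 Percent inhibition of each kinase was measured with the inhibitor at 0.1 µM and at 1 µM, as part of a 200-kinase human selectivity panel.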

HCK = target: T2, HCK (Homo sapiens, UniProt P08631)
T2 construct: purchased Nanosyn (enzymatic panel); SGC in-house recombinant human kinases (DSF panel); Invitrogen (ALK1-6)
In short: as §1

MSSK1 = target: T3, MSSK1 (Homo sapiens, UniProt Q9UPE1)
T3 construct: purchased Nanosyn (enzymatic panel); SGC in-house recombinant human kinases (DSF panel); Invitrogen (ALK1-6)
T3 sequence (Q9UPE1 whole entry): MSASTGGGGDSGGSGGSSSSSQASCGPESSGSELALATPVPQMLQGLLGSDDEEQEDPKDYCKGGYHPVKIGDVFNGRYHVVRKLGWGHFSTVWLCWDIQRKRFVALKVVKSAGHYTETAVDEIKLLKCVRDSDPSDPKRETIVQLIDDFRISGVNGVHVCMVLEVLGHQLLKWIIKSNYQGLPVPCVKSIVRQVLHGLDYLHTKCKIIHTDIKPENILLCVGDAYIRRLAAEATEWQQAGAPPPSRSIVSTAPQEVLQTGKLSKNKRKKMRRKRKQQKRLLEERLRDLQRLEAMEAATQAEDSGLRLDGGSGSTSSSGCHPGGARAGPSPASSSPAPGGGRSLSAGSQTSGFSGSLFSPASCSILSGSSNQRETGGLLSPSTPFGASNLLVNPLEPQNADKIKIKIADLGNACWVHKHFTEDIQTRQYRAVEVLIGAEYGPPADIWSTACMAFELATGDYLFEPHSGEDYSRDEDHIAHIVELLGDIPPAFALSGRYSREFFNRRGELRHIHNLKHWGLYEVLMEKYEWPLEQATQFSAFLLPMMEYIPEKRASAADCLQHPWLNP
In short: as §1

NEK7 = target: T4, NEK7 (Homo sapiens, UniProt Q8TDX7)
T4 construct: purchased Nanosyn (enzymatic panel); SGC in-house recombinant human kinases (DSF panel); Invitrogen (ALK1-6)
T4 sequence (Q8TDX7 whole entry): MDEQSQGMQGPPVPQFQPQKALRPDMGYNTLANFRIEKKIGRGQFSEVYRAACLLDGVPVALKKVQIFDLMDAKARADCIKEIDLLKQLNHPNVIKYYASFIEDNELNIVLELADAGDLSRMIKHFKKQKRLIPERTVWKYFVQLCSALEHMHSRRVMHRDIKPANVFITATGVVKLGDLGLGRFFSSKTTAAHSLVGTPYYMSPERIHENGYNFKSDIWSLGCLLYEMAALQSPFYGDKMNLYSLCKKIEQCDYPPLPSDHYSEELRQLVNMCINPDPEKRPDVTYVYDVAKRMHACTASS
In short: as §1

PKCα = target: T5, PKCα (Homo sapiens, UniProt P17252)
T5 construct: purchased Nanosyn (enzymatic panel); SGC in-house recombinant human kinases (DSF panel); Invitrogen (ALK1-6)
In short: as §1

PLK1 = target: T6, PLK1 (Homo sapiens, UniProt P53350)
T6 construct: purchased Nanosyn (enzymatic panel); SGC in-house recombinant human kinases (DSF panel); Invitrogen (ALK1-6)
In short: as §1

MEK1 = target: T7, MEK1 (Homo sapiens, UniProt Q02750)
T7 construct: purchased Nanosyn (enzymatic panel); SGC in-house recombinant human kinases (DSF panel); Invitrogen (ALK1-6)
In short: as §1

ITK = target: T8, ITK (Homo sapiens, UniProt Q08881)
T8 construct: purchased Nanosyn (enzymatic panel); SGC in-house recombinant human kinases (DSF panel); Invitrogen (ALK1-6)
T8 sequence (Q08881 1-620): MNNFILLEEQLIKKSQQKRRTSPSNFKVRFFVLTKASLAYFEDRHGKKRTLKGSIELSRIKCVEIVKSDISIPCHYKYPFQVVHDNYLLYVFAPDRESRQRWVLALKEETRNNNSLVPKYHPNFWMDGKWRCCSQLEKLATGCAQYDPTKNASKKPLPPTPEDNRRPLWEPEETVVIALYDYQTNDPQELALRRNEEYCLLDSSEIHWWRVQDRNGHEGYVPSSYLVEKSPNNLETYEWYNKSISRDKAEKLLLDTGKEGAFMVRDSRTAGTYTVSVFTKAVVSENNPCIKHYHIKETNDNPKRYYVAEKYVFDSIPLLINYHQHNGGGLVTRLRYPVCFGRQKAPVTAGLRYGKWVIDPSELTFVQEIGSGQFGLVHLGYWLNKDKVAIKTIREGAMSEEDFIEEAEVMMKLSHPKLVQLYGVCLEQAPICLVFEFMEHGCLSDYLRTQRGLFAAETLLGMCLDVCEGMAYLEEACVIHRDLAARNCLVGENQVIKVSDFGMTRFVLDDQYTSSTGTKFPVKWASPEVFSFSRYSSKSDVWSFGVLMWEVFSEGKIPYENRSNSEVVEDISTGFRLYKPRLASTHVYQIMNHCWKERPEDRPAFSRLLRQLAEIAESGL
In short: as §1

FYN = target: T9, FYN (Homo sapiens, UniProt P06241)
T9 construct: purchased Nanosyn (enzymatic panel); SGC in-house recombinant human kinases (DSF panel); Invitrogen (ALK1-6)
In short: as §1

P70S6KB1 = target: T10, P70S6KB1 (Homo sapiens, UniProt P23443)
T10 construct: purchased Nanosyn (enzymatic panel); SGC in-house recombinant human kinases (DSF panel); Invitrogen (ALK1-6)
In short: as §1

LTK = target: T11, LTK (Homo sapiens, UniProt P29376)
T11 construct: purchased Nanosyn (enzymatic panel); SGC in-house recombinant human kinases (DSF panel); Invitrogen (ALK1-6)
In short: as §1

KIT = target: T12, KIT (Homo sapiens, UniProt P10721)
T12 construct: purchased Nanosyn (enzymatic panel); SGC in-house recombinant human kinases (DSF panel); Invitrogen (ALK1-6)
T12 sequence (P10721 26-976): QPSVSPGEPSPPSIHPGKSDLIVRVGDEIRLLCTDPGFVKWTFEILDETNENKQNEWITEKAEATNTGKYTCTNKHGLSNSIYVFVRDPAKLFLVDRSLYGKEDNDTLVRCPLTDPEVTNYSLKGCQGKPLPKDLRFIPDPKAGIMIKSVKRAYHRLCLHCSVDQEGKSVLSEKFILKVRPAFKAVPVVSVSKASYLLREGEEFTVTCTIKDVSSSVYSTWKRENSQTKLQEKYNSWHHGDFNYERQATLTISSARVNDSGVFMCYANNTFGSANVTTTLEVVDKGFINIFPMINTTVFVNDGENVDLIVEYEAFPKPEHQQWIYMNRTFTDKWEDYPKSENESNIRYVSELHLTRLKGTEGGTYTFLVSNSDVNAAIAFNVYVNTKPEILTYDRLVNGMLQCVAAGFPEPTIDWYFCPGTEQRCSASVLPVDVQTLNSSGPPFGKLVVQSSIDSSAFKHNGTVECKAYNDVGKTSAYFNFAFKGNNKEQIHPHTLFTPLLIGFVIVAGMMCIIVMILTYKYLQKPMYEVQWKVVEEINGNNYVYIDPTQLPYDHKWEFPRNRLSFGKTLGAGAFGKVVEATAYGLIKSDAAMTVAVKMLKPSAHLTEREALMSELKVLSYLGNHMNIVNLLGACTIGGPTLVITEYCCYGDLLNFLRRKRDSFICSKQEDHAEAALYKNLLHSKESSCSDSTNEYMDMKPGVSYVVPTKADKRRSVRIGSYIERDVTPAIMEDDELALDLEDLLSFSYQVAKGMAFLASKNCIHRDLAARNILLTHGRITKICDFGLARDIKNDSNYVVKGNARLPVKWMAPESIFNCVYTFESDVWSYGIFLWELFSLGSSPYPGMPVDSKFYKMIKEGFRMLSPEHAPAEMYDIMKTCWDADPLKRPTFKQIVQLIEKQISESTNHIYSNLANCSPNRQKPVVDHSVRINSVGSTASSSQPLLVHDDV
In short: as §1

PRKG2 = target: T13, PRKG2 (Homo sapiens, UniProt Q13237)
T13 construct: purchased Nanosyn (enzymatic panel); SGC in-house recombinant human kinases (DSF panel); Invitrogen (ALK1-6)
T13 sequence (Q13237 1-762): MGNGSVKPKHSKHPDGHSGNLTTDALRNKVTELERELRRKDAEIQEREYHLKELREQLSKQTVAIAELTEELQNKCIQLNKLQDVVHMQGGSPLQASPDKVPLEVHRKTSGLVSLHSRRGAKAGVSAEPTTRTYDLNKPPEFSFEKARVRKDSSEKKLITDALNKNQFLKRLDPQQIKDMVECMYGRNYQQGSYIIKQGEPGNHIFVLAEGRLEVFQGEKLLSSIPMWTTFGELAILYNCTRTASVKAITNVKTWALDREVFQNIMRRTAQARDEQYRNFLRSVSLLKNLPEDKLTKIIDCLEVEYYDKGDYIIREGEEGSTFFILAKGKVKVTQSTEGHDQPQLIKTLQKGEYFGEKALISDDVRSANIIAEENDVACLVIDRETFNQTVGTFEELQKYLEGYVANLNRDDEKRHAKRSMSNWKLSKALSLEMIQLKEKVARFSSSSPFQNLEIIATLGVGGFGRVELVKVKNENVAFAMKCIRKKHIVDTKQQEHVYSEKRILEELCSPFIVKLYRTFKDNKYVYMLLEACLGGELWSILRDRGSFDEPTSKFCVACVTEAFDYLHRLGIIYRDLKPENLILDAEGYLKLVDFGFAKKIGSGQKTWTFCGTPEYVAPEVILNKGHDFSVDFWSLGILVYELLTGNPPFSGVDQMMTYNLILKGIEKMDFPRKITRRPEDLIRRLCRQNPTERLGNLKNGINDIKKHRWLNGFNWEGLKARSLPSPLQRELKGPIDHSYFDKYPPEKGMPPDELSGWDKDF
In short: as §1

RON = target: T14, RON (Homo sapiens, UniProt Q04912)
T14 construct: purchased Nanosyn (enzymatic panel); SGC in-house recombinant human kinases (DSF panel); Invitrogen (ALK1-6)
T14 sequence (Q04912 25-1400): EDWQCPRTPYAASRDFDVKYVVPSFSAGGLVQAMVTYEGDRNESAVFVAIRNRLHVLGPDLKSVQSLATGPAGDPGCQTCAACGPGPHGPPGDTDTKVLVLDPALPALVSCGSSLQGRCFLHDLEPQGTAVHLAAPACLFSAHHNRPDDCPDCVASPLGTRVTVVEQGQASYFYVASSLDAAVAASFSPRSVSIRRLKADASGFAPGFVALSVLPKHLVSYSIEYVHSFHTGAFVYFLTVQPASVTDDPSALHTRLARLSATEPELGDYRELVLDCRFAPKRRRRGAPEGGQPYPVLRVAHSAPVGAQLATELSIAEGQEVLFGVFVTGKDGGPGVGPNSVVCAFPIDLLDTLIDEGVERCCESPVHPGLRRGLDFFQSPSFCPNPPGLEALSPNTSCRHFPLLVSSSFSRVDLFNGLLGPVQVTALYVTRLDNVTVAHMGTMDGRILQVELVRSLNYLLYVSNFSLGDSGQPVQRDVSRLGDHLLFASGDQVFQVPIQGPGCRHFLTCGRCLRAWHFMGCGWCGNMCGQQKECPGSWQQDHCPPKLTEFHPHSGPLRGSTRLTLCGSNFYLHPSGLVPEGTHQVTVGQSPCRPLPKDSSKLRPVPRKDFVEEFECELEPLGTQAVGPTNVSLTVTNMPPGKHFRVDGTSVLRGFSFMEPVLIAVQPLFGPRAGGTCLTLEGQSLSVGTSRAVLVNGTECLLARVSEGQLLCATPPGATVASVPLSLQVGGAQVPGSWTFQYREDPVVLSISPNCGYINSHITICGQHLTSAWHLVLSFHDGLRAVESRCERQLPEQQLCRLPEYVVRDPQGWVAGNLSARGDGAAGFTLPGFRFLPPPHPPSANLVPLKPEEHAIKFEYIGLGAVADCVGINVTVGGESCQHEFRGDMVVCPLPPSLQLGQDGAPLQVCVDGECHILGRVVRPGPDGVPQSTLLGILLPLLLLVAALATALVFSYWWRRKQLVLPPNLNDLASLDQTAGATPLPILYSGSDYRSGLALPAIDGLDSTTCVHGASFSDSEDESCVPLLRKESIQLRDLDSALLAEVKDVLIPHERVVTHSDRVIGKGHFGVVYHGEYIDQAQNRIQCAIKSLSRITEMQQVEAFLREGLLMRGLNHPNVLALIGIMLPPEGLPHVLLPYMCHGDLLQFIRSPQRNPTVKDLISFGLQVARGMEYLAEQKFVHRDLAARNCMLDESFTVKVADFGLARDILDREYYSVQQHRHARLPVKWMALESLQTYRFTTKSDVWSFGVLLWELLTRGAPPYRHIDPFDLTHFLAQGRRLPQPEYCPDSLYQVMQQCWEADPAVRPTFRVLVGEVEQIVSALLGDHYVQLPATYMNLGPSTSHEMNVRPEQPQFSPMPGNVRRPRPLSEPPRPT
In short: as §1

PAK1 = target: T15, PAK1 (Homo sapiens, UniProt Q13153)
T15 construct: purchased Nanosyn (enzymatic panel); SGC in-house recombinant human kinases (DSF panel); Invitrogen (ALK1-6)
In short: as §1

GSK3β = target: T16, GSK3β (Homo sapiens, UniProt P49841)
T16 construct: purchased Nanosyn (enzymatic panel); SGC in-house recombinant human kinases (DSF panel); Invitrogen (ALK1-6)
T16 sequence (P49841 whole entry): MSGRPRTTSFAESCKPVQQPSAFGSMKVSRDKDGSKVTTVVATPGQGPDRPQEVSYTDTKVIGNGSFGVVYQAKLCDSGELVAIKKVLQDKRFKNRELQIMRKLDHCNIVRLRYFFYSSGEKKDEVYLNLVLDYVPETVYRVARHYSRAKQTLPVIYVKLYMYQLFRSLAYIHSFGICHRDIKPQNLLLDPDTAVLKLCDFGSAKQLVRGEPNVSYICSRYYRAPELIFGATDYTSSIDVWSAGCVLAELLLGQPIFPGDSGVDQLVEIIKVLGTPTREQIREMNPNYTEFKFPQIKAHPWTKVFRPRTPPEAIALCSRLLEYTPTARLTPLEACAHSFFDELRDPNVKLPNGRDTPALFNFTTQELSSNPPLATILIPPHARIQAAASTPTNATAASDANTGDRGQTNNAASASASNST
In short: as §1

FGFR4 = target: T17, FGFR4 (Homo sapiens, UniProt P22455)
T17 construct: purchased Nanosyn (enzymatic panel); SGC in-house recombinant human kinases (DSF panel); Invitrogen (ALK1-6)
In short: as §1

MRCKβ = target: T18, MRCKβ (Homo sapiens, UniProt Q9Y5S2)
T18 construct: purchased Nanosyn (enzymatic panel); SGC in-house recombinant human kinases (DSF panel); Invitrogen (ALK1-6)
In short: as §1

SMILES | inhibition at 0.1 µM (BTK) [%] | inhibition at 1 µM (BTK) [%] | inhibition at 0.1 µM (HCK) [%] | inhibition at 1 µM (HCK) [%] | inhibition at 0.1 µM (MSSK1) [%] | inhibition at 1 µM (MSSK1) [%] | inhibition at 0.1 µM (NEK7) [%] | inhibition at 1 µM (NEK7) [%] | inhibition at 0.1 µM (PKCα) [%] | inhibition at 1 µM (PKCα) [%] | inhibition at 0.1 µM (PLK1) [%] | inhibition at 1 µM (PLK1) [%] | inhibition at 0.1 µM (MEK1) [%] | inhibition at 1 µM (MEK1) [%] | inhibition at 0.1 µM (ITK) [%] | inhibition at 1 µM (ITK) [%] | inhibition at 0.1 µM (FYN) [%] | inhibition at 1 µM (FYN) [%] | inhibition at 0.1 µM (P70S6KB1) [%] | inhibition at 1 µM (P70S6KB1) [%] | further results
COc1cc(-c2cc(-c3cccc(O)c3)cnc2N)cc(OC)c1OC [K02288, 3-[6-amino-5-(3,4,5-trimethoxy-phenyl)-pyridin-3-yl]-phenol] | 0.5 | 6.6 | 8.9 | 51 | 1.8 | 0 | 0.2 | -3 | 0.2 | 2.2 | -2 | -2 | -1 | 10 | 0 | 0 | 10 | 43 | -2 | -1 | inhibition at 0.1 µM (LTK): 3.6%; inhibition at 1 µM (LTK): 31%; inhibition at 0.1 µM (KIT): 4%; inhibition at 1 µM (KIT): 9.2%; inhibition at 0.1 µM (PRKG2): 1%; inhibition at 1 µM (PRKG2): 5%; inhibition at 0.1 µM (RON): 3%; inhibition at 1 µM (RON): -1%; inhibition at 0.1 µM (PAK1): 0%; inhibition at 1 µM (PAK1): 0.6%; inhibition at 0.1 µM (GSK3β): 0.5%; inhibition at 1 µM (GSK3β): 1.6%; inhibition at 0.1 µM (FGFR4): 4%; inhibition at 1 µM (FGFR4): 0%; inhibition at 0.1 µM (MRCKβ): 0.6%; inhibition at 1 µM (MRCKβ): 2%
c1ccc2c(-c3cnn4cc(-c5ccc(N6CCNCC6)cc5)cnc34)ccnc2c1 [LDN-193189] | 0.5 | 1.8 | 9.7 | 33 | -3 | 1.5 | 7.9 | 1.7 | 1 | 1.1 | 0.8 | 1.3 | 1.4 | 1 | 0.9 | 3.6 | 18 | 60 | 1 | 0.6 | inhibition at 0.1 µM (LTK): 3.6%; inhibition at 1 µM (LTK): 4%; inhibition at 0.1 µM (KIT): 7%; inhibition at 1 µM (KIT): 41%; inhibition at 0.1 µM (PRKG2): 1.7%; inhibition at 1 µM (PRKG2): 9.3%; inhibition at 0.1 µM (RON): -2%; inhibition at 1 µM (RON): 12%; inhibition at 0.1 µM (PAK1): 4.3%; inhibition at 1 µM (PAK1): 4.9%; inhibition at 0.1 µM (GSK3β): 2.7%; inhibition at 1 µM (GSK3β): 2.1%; inhibition at 0.1 µM (FGFR4): 0.3%; inhibition at 1 µM (FGFR4): 2.4%; inhibition at 0.1 µM (MRCKβ): 0%; inhibition at 1 µM (MRCKβ): 2.1%
